ChEMBL document CHEMBL3627615, “Discovery of the disubstituted oxazole analogues as a novel class anti-tuberculotic agents against MDR- and XDR-MTB” (Bioorg Med Chem Lett, 2015)
In brackets after ≈: the same amount, converted by molar mass.

Columns and labels:
[1] = system: Mycobacterium tuberculosis; assay: Antimycobacterial activity against multidrug-resistant Mycobacterium tuberculosis FJ05120 after 3 to 4 weeks by microplate alamar blue assay; assay type: functional
[2] = system: Mycobacterium tuberculosis; assay: Antimycobacterial activity against extensively drug-resistant Mycobacterium tuberculosis FJ05195 after 3 to 4 weeks by microplate alamar blue assay; assay type: functional

## Cc1ccc(-c2nc(CN3CCC(C(=O)c4ccc5c(c4)OCCO5)CC3)co2)cc1
[1]
  MIC90: 64 µg/mL (≈ 153 µM)
[2]
  MIC90: 64 µg/mL (≈ 153 µM)

## O=C(c1ccc2c(c1)OCCO2)C1CCN(Cc2coc(-c3ccccc3)n2)CC1
[1]
  MIC90: 8 µg/mL (≈ 19.8 µM)
[2]
  MIC90: 8 µg/mL (≈ 19.8 µM)

## CC(C)(C)c1ccc(-c2nc(CN3CCC(C(=O)c4ccc5c(c4)OCCO5)CC3)cs2)cc1
[1]
  MIC90: > 128 µg/mL
[2]
  MIC90: > 128 µg/mL

## NNC(=O)c1ccncc1 [ISONIAZID]
[1]
  MIC90: 1 µg/mL (≈ 7.29 µM)
[2]
  MIC90: 4 µg/mL (≈ 29.2 µM)

## COc1ccc(C(=O)C2CCN(Cc3coc(-c4ccc(F)cc4)n3)CC2)cc1OC
[1]
  MIC90: 16 µg/mL (≈ 37.7 µM)
[2]
  MIC90: 16 µg/mL (≈ 37.7 µM)

## CN[C@@H]1[C@H](O[C@H]2[C@H](O[C@H]3[C@H](O)[C@@H](O)[C@H](N=C(N)N)[C@@H](O)[C@@H]3N=C(N)N)O[C@@H](C)[C@]2(O)C=O)O[C@@H](CO)[C@H](O)[C@H]1O [STREPTOMYCIN]
[1]
  MIC90: < 0.5 µg/mL
[2]
  MIC90: 64 µg/mL (≈ 110 µM)

## CC(C)(C)c1ccc(-c2nc(CN3CCC(C(=O)c4ccc5c(c4)CCCC5)CC3)co2)cc1
[1]
  MIC90: 4 µg/mL (≈ 8.76 µM)
[2]
  MIC90: 4 µg/mL (≈ 8.76 µM)

## O=C(c1ccc2c(c1)CCCC2)C1CCN(Cc2coc(-c3ccc(F)cc3)n2)CC1
[1]
  MIC90: 4 µg/mL (≈ 9.56 µM)
[2]
  MIC90: 4 µg/mL (≈ 9.56 µM)

## COc1ccc(-c2nc(CN3CCC(C(=O)c4ccc5c(c4)OCCO5)CC3)co2)cc1
[1]
  MIC90: 8 µg/mL (≈ 18.4 µM)
[2]
  MIC90: 4 µg/mL (≈ 9.21 µM)

## O=C(c1ccc2c(c1)OCCO2)C1CCN(Cc2coc(-c3ccc(C(F)(F)F)cc3)n2)CC1
[1]
  MIC90: 64 µg/mL (≈ 135 µM)
[2]
  MIC90: 64 µg/mL (≈ 135 µM)

## Cc1ccc(C(=O)C2CCN(Cc3coc(-c4ccc(F)cc4)n3)CC2)cc1
[1]
  MIC90: 16 µg/mL (≈ 42.3 µM)
[2]
  MIC90: 8 µg/mL (≈ 21.1 µM)

## O=C(c1ccc2c(c1)OCCO2)C1CCN(Cc2coc(-c3ccc(F)c(F)c3)n2)CC1
[1]
  MIC90: 8 µg/mL (≈ 18.2 µM)
[2]
  MIC90: 8 µg/mL (≈ 18.2 µM)

## CO[C@H]1/C=C/O[C@@]2(C)Oc3c(C)c(O)c4c(O)c(c(/C=N/N5CCN(C)CC5)c(O)c4c3C2=O)NC(=O)/C(C)=C\C=C\[C@H](C)[C@H](O)[C@@H](C)[C@@H](O)[C@@H](C)[C@H](OC(C)=O)[C@@H]1C [RIFAMPIN]
[1]
  MIC90: > 256 µg/mL
[2]
  MIC90: > 256 µg/mL

## O=C(c1ccc2c(c1)OCCO2)C1CCN(Cc2coc(-c3ccoc3)n2)CC1
[1]
  MIC90: 32 µg/mL (≈ 81.1 µM)
[2]
  MIC90: 64 µg/mL (≈ 162 µM)

## O=C(c1ccccc1)C1CCN(Cc2coc(-c3ccc(F)cc3)n2)CC1
[1]
  MIC90: 4 µg/mL (≈ 11 µM)
[2]
  MIC90: 4 µg/mL (≈ 11 µM)

## O=C(c1ccc2c(c1)OCCO2)C1CCN(Cc2coc(-c3ccc(F)cc3)n2)CC1
[1]
  MIC90: 8 µg/mL (≈ 18.9 µM)
[2]
  MIC90: 8 µg/mL (≈ 18.9 µM)

## O=C(c1ccc2c(c1)OCCO2)C1CCN(Cc2csc(-c3ccc(Cl)cc3)n2)CC1
[1]
  MIC90: > 128 µg/mL
[2]
  MIC90: > 128 µg/mL

## O=C(c1ccc2c(c1)OCCO2)C1CCN(Cc2coc(-c3ccc(Cl)cc3)n2)CC1
[1]
  MIC90: 8 µg/mL (≈ 18.2 µM)
[2]
  MIC90: 4 µg/mL (≈ 9.11 µM)

## O=C(c1ccc2c(c1)OCCO2)C1CCN(Cc2coc(-c3ccco3)n2)CC1
[1]
  MIC90: 32 µg/mL (≈ 81.1 µM)
[2]
  MIC90: 32 µg/mL (≈ 81.1 µM)

## O=C(c1ccc2c(c1)OCCO2)C1CCN(Cc2coc(-c3ccc(Br)cc3)n2)CC1
[1]
  MIC90: 8 µg/mL (≈ 16.6 µM)
[2]
  MIC90: 8 µg/mL (≈ 16.6 µM)

## O=C(c1ccc2c(c1)OCCO2)C1CCN(Cc2cc(-c3ccc(F)cc3)on2)CC1
[1]
  MIC90: > 128 µg/mL
[2]
  MIC90: > 128 µg/mL

## O=C(c1ccc(F)c(F)c1)C1CCN(Cc2coc(-c3ccc(F)cc3)n2)CC1
[1]
  MIC90: 8 µg/mL (≈ 20 µM)
[2]
  MIC90: 8 µg/mL (≈ 20 µM)

## COc1ccc(C(=O)C2CCN(Cc3coc(-c4ccc(F)cc4)n3)CC2)cc1
[1]
  MIC90: 8 µg/mL (≈ 20.3 µM)
[2]
  MIC90: 8 µg/mL (≈ 20.3 µM)

## CC(C)(C)c1ccc(-c2nc(CN3CCC(C(=O)c4ccc5c(c4)OCCO5)CC3)co2)cc1
[1]
  MIC90: 2 µg/mL (≈ 4.34 µM)
[2]
  MIC90: 1 µg/mL (≈ 2.17 µM)

## O=C(c1ccc2c(c1)OCCO2)C1CCN(Cc2coc(-c3ccccc3F)n2)CC1
[1]
  MIC90: 16 µg/mL (≈ 37.9 µM)
[2]
  MIC90: 8 µg/mL (≈ 18.9 µM)

## CC[C@@H](CO)NCCN[C@@H](CC)CO [ETHAMBUTOL]
[1]
  MIC90: 1 µg/mL (≈ 4.89 µM)
[2]
  MIC90: 8 µg/mL (≈ 39.2 µM)

## Cc1ccc(C(=O)C2CCN(Cc3coc(-c4ccc(F)cc4)n3)CC2)cc1C
[1]
  MIC90: 8 µg/mL (≈ 20.4 µM)
[2]
  MIC90: 8 µg/mL (≈ 20.4 µM)

## O=C(c1ccc2c(c1)OCCO2)C1CCN(Cc2coc(-c3cccc(F)c3)n2)CC1
[1]
  MIC90: 16 µg/mL (≈ 37.9 µM)
[2]
  MIC90: 8 µg/mL (≈ 18.9 µM)

## O=C(c1ccc2c(c1)OCCO2)C1CCN(Cc2coc(-c3cccnc3)n2)CC1
[1]
  MIC90: 32 µg/mL (≈ 78.9 µM)
[2]
  MIC90: 32 µg/mL (≈ 78.9 µM)
